Data published in ChEMBL document CHEMBL3886684, “Azole compounds as PIM inhibitors” (2016).

Target: Serine/threonine-protein kinase pim-2 (Homo sapiens, UniProt Q9P1W9)
Test: The phosphorylation of biotinylated-BAD (S112) peptide by full length recombinant Pim-1, Pim-2, or Pim-3 protein was detected with streptavidin:Allophycocyanin (APC) conjugate and a europium (Eu) labeled antibody directed against phosphorylated-BAD (S112). […] A reference compound was included on each assay plate in order to validate that plate; on

Chain of Serine/threonine-protein kinase pim-2 (Q9P1W9 whole entry): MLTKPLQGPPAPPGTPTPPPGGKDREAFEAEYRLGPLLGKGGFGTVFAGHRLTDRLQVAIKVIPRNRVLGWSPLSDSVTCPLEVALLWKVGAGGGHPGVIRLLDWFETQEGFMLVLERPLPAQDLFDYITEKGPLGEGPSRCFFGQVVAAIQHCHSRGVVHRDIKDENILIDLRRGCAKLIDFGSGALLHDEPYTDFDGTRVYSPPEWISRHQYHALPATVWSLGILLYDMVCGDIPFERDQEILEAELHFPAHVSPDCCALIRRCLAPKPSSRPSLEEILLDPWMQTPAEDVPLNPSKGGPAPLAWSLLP

- IC50: 0.738 µM
Compound: CC(C)(C)Nc1nnc(-c2ccc3[nH]cc(C4=CCOCC4)c3c2)o1
